# Article PMC5518657, “Deacetylation of mycothiol-derived ‘waste product’ triggers the last biosynthetic steps of lincosamide antibiotics” (Chemical Science, 2015)
# Molecular target: T1, LmbF (Streptomyces lincolnensis, UniProt A9Y8R7)
# T1 construct: recombinant protein; details only in ESI
# Assay: in vitro turnover of […] with and without PLP, LC-MS
# Assay type: biochemical
# Conditions: no turnover without PLP; covalent binding to the substrate amino group is proposed
# T1 sequence (A9Y8R7 entry or part of it): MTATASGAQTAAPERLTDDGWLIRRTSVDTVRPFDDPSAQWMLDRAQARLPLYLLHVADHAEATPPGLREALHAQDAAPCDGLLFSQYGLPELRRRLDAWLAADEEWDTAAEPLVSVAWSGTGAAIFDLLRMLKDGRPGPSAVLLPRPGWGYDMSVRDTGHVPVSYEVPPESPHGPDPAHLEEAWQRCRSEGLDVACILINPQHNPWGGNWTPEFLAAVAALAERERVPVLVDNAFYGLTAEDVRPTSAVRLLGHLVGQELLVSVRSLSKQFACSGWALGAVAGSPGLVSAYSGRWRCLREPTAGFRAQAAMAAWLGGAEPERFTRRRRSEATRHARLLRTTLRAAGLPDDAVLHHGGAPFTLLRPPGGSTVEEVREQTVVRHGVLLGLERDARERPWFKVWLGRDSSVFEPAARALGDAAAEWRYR
structure (smiles),measurement,value
Cc1ncc(COP(=O)(O)O)c(C=O)c1O [pyridoxal-5′-phosphate],"in vitro turnover of 479 with and without PLP, LC-MS",LmbF failed to carry out this reaction in the absence of PLP
